These results are taken from patent US11117900B2 (Vertex Pharmaceuticals Incorporated, priority 2012, dated 2021).

This experiment relates to HCT116 colorectal cancer cells. Nature of the experiment: Cisplatin sensitization assay (96 h MTS cell viability).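 Note: compound concentration needed to lower the IC50 of Cisplatin alone by a set fold.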 It counts as cell-based. To be noted: Cisplatin sensitization value. The procedure, abridged:
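The MTS viability read, after 1 h with reagent, followed 96 h of co-treatment at 37° C. in 5% CO2. Both compound and cisplatin were titrated 2-fold from a 10 μM top final concentration in a complete concentration matrix on HCT116 cells. Scores +++/++/+ reflect cisplatin sensitization value ranges.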
As to `CN1CCC[C@@H]1C(=O)N1CCN(c2c(F)cncc2NC(=O)c2c(N)nn3cc(F)cnc23)CC1` [I-N-181, (R)-2-amino-6-fluoro-N-(5-fluoro-4-(4-(1-methylpyrrolidine-2-carbonyl)piperazin-1-yl)pyridin-3-yl)pyrazolo[1,5-a]pyrimidine-3-carboxamide], the “Cisplatin Sensitization Assay” value is listed as “+++ (Compounds with a Cisplatin sensitization value of <0.02 μM are marked with “+++.”)”.
`Nc1nn2cc(F)cnc2c1C(=O)Nc1cnccc1N1CCN(CC(F)(F)F)CC1` [I-N-20, 2-amino-6-fluoro-N-(4-(4-(2,2,2-trifluoroethyl)piperazin-1-yl)pyridin-3-yl)pyrazolo[1,5-a]pyrimidine-3-carboxamide]: the “Cisplatin Sensitization Assay” value is recorded as “+++ (Compounds with a Cisplatin sensitization value of <0.02 μM are marked with “+++.”)”.
The value for `N#CCc1cnc2c(C(=O)Nc3cnccc3OC3CCCNC3)c(N)nn2c1` (racemic) [I-O-2, (R,S)-2-amino-6-(cyanomethyl)-N-(4-(piperidin-3-yloxy)pyridin-3-yl)pyrazolo[1,5-a]pyrimidine-3-carboxamide] was “++ (Compounds with a Cisplatin sensitization value >0.02 μM but <0.2 μM are marked with “++.”)”; that for `CN1CCC(c2c(F)cncc2NC(=O)c2c(N)nn3cc(F)cnc23)CC1` [I-C-14, 2-amino-6-fluoro-N-(5-fluoro-4-(1-methylpiperidin-4-yl)pyridin-3-yl)pyrazolo[1,5-a]pyrimidine-3-carboxamide] was “+ (Compounds with a Cisplatin sensitization value >0.2 μM but <5 μM are marked with “+.”)”.
In the case of `COCCN1CCN(c2c(F)cncc2NC(=O)c2c(N)nn3cc(F)cnc23)CC1` [I-N-127, 2-amino-6-fluoro-N-(5-fluoro-4-(4-(2-methoxyethyl)piperazin-1-yl)pyridin-3-yl)pyrazolo[1,5-a]pyrimidine-3-carboxamide] it was “+++ (Compounds with a Cisplatin sensitization value of <0.02 μM are marked with “+++.”)”.
Take `Cc1cncc(NC(=O)c2c(N)nn3cc(Cl)cnc23)c1N1CCN(C)CC1` [I-N-57, 2-amino-6-chloro-N-(5-methyl-4-(4-methylpiperazin-1-yl)pyridin-3-yl)pyrazolo[1,5-a]pyrimidine-3-carboxamide]: the “Cisplatin Sensitization Assay” value was “+++ (Compounds with a Cisplatin sensitization value of <0.02 μM are marked with “+++.”)”.
Regarding `CN1CC2CN(c3c(Cl)cncc3NC(=O)c3c(N)nn4cc(F)cnc34)CC2C1` (stereo not shown) [I-N-286, 2-amino-N-(5-chloro-4-(5-methylhexahydropyrrolo[3,4-c]pyrrol-2(1H)-yl)pyridin-3-yl)-6-fluoropyrazolo[1,5-a]pyrimidine-3-carboxamide], the “Cisplatin Sensitization Assay” value is reported as “++ (Compounds with a Cisplatin sensitization value >0.02 μM but <0.2 μM are marked with “++.”)”.
The value for `CN(C)C1CN(C(=O)C2CCN(c3c(F)cncc3NC(=O)c3c(N)nn4cc(F)cnc34)CC2)C1` [I-G-22, 2-amino-N-(4-(4-(3-(dimethylamino)azetidine-1-carbonyl)piperidin-1-yl)-5-fluoropyridin-3-yl)-6-fluoropyrazolo[1,5-a]pyrimidine-3-carboxamide] was “+++ (Compounds with a Cisplatin sensitization value of <0.02 μM are marked with “+++.”)”.
The value for `CN1CCN(c2c(F)cncc2NC(=O)c2c(N)nn3cc(Cl)cnc23)CC1` [I-N-14, 2-amino-6-chloro-N-(5-fluoro-4-(4-methylpiperazin-1-yl)pyridin-3-yl)pyrazolo[1,5-a]pyrimidine-3-carboxamide] was “+++ (Compounds with a Cisplatin sensitization value of <0.02 μM are marked with “+++.”)”; that for `COC1(CN(C)C)CCN(c2ccncc2NC(=O)c2c(N)nn3cc(Cl)cnc23)CC1` [I-N-46, 2-amino-6-chloro-N-(4-(4-((dimethylamino)methyl)-4-methoxypiperidin-1-yl)pyridin-3-yl)pyrazolo[1,5-a]pyrimidine-3-carboxamide] was “+++ (Compounds with a Cisplatin sensitization value of <0.02 μM are marked with “+++.”)”; that for `Cc1ncn(-c2ccncc2NC(=O)c2c(N)nn3cc(F)cnc23)c1C` [I-N-269, 2-amino-N-(4-(4,5-dimethyl-1H-imidazol-1-yl)pyridin-3-yl)-6-fluoropyrazolo[1,5-a]pyrimidine-3-carboxamide] was “++ (Compounds with a Cisplatin sensitization value >0.02 μM but <0.2 μM are marked with “++.”)”.
As for `Nc1nn2cc(F)cnc2c1C(=O)Nc1cncc(F)c1N1CCN2C(=O)CC[C@@H]2C1` [I-N-182, (R)-2-amino-6-fluoro-N-(5-fluoro-4-(6-oxohexahydropyrrolo[1,2-a]pyrazin-2(1H)-yl)pyridin-3-yl)pyrazolo[1,5-a]pyrimidine-3-carboxamide], the “Cisplatin Sensitization Assay” value is on record as “++ (Compounds with a Cisplatin sensitization value >0.02 μM but <0.2 μM are marked with “++.”)”.
The value for `CN(C)CC1(O)CCN(c2ccncc2NC(=O)c2c(N)nn3cc(Cl)cnc23)CC1` [I-N-36, 2-amino-6-chloro-N-(4-(4-((dimethylamino)methyl)-4-hydroxypiperidin-1-yl)pyridin-3-yl)pyrazolo[1,5-a]pyrimidine-3-carboxamide] was “++ (Compounds with a Cisplatin sensitization value >0.02 μM but <0.2 μM are marked with “++.”)”; that for `Nc1nn2cc(F)cnc2c1C(=O)Nc1cncc(F)c1N1CCC(CN2CCOCC2)CC1` [I-N-149, 2-amino-6-fluoro-N-(5-fluoro-4-(4-(morpholinomethyl)piperidin-1-yl)pyridin-3-yl)pyrazolo[1,5-a]pyrimidine-3-carboxamide] was “+++ (Compounds with a Cisplatin sensitization value of <0.02 μM are marked with “+++.”)”; that for `CN(C)CCOc1cc(Cl)ncc1NC(=O)c1c(N)nn2cc(Cl)cnc12` [I-O-68, 2-amino-6-chloro-N-(6-chloro-4-(2-(dimethylamino)ethoxy)pyridin-3-yl)pyrazolo[1,5-a]pyrimidine-3-carboxamide] was “++ (Compounds with a Cisplatin sensitization value >0.02 μM but <0.2 μM are marked with “++.”)”.
The value for `COC1CCN(c2ccncc2NC(=O)c2c(N)nn3cc(Cl)cnc23)CC1` [I-N-73, 2-amino-6-chloro-N-(4-(4-methoxypiperidin-1-yl)pyridin-3-yl)pyrazolo[1,5-a]pyrimidine-3-carboxamide] was “+++ (Compounds with a Cisplatin sensitization value of <0.02 μM are marked with “+++.”)”.
In the case of `Nc1nn2cc(F)cnc2c1C(=O)Nc1cncc(F)c1N1CCCC1` [I-N-246, 2-amino-6-fluoro-N-(5-fluoro-4-(pyrrolidin-1-yl)pyridin-3-yl)pyrazolo[1,5-a]pyrimidine-3-carboxamide] it was “++ (Compounds with a Cisplatin sensitization value >0.02 μM but <0.2 μM are marked with “++.”)”; in that of `Nc1nn2cc(F)cnc2c1C(=O)Nc1cncc(F)c1N1CCC(C(=O)N2CCN3CCC2CC3)CC1` [I-G-7, N-(4-(4-(1,4-diazabicyclo[3.2.2]nonane-4-carbonyl)piperidin-1-yl)-5-fluoropyridin-3-yl)-2-amino-6-fluoropyrazolo[1,5-a]pyrimidine-3-carboxamide], “+++ (Compounds with a Cisplatin sensitization value of <0.02 μM are marked with “+++.”)”.
On to `Nc1nn2cc(F)cnc2c1C(=O)Nc1cnccc1O[C@H]1CCCN(C2COC2)C1` [I-O-9, (S)-2-amino-6-fluoro-N-(4-((1-(oxetan-3-yl)piperidin-3-yl)oxy)pyridin-3-yl)pyrazolo[1,5-a]pyrimidine-3-carboxamide], for which the “Cisplatin Sensitization Assay” value is on record as “++ (Compounds with a Cisplatin sensitization value >0.02 μM but <0.2 μM are marked with “++.”)”.
In the case of `CCOc1ccncc1NC(=O)c1c(N)nn2cc(CC#N)cnc12` [I-O-28, 2-amino-6-(cyanomethyl)-N-(4-ethoxypyridin-3-yl)pyrazolo[1,5-a]pyrimidine-3-carboxamide] it was “+++ (Compounds with a Cisplatin sensitization value of <0.02 μM are marked with “+++.”)”.
Turning to `Nc1nn2cc(Cl)cnc2c1C(=O)Nc1cnccc1N1CCNC(C(F)(F)F)C1` (stereo not shown) [I-N-70, 2-amino-6-chloro-N-(4-(3-(trifluoromethyl)piperazin-1-yl)pyridin-3-yl)pyrazolo[1,5-a]pyrimidine-3-carboxamide], the “Cisplatin Sensitization Assay” value is listed as “++ (Compounds with a Cisplatin sensitization value >0.02 μM but <0.2 μM are marked with “++.”)”.
In the case of `N#CCc1cnc2c(C(=O)Nc3cnccc3OCCN)c(N)nn2c1` [I-O-83, 2-amino-N-(4-(2-aminoethoxy)pyridin-3-yl)-6-(cyanomethyl)pyrazolo[1,5-a]pyrimidine-3-carboxamide] it was “+++ (Compounds with a Cisplatin sensitization value of <0.02 μM are marked with “+++.”)”; in that of `Cc1nc(C(=O)N2CCN(C)CC2)ccc1-c1ccncc1NC(=O)c1c(N)nn2cc(F)cnc12` [I-C-39, 2-amino-6-fluoro-N-(2-methyl-6-(4-methylpiperazine-1-carbonyl)-[3,4′-bipyridin]-3′-yl)pyrazolo[1,5-a]pyrimidine-3-carboxamide], “+++ (Compounds with a Cisplatin sensitization value of <0.02 μM are marked with “+++.”)”.
In the case of `Nc1nn2cc(Cl)cnc2c1C(=O)Nc1cnccc1N1CCC(N2CCn3cncc3C2)CC1` [I-N-101, 2-amino-6-chloro-N-(4-(4-(5,6-dihydroimidazo[1,5-a]pyrazin-7(8H)-yl)piperidin-1-yl)pyridin-3-yl)pyrazolo[1,5-a]pyrimidine-3-carboxamide] it was “++ (Compounds with a Cisplatin sensitization value >0.02 μM but <0.2 μM are marked with “++.”)”; in that of `CN1CCCN(C(=O)C2CCN(c3c(F)cncc3NC(=O)c3c(N)nn4cc(F)cnc34)CC2)CC1` [I-G-6, 2-amino-6-fluoro-N-(5-fluoro-4-(4-(4-methyl-1,4-diazepane-1-carbonyl)piperidin-1-yl)pyridin-3-yl)pyrazolo[1,5-a]pyrimidine-3-carboxamide], “+++ (Compounds with a Cisplatin sensitization value of <0.02 μM are marked with “+++.”)”.
